Series [1] deals with Voltage-gated inwardly rectifying potassium channel KCNH2 (Homo sapiens, UniProt Q12809). As to the kind of experiment: Inhibition of human ERG expressed in CHOK1 cell membranes after 2 hrs by cy3b-dofetilide-based fluorescence polarization assay.
In series [2] the target is T1, Tyrosine-protein kinase SYK (Homo sapiens, UniProt P43405). In words: Inhibition of SYK in human B cells assessed as suppression of anti-IgM-induced CD69 surface expression preincubated for 30 mins followed by anti-IgM addition measured after 3.5 hrs by flow cytometric analysis. The class given is cell-based. Background: In flow cytometry, cells or beads pass a laser one at a time.

For the next series, the target named is albumin (Homo sapiens, UniProt P02768). As to the kind of experiment: Binding affinity to human serum albumin by HPLC analysis. The class given is ADME. To be noted: read-out: PB (converted).
albumin, sequence (P02768 whole entry): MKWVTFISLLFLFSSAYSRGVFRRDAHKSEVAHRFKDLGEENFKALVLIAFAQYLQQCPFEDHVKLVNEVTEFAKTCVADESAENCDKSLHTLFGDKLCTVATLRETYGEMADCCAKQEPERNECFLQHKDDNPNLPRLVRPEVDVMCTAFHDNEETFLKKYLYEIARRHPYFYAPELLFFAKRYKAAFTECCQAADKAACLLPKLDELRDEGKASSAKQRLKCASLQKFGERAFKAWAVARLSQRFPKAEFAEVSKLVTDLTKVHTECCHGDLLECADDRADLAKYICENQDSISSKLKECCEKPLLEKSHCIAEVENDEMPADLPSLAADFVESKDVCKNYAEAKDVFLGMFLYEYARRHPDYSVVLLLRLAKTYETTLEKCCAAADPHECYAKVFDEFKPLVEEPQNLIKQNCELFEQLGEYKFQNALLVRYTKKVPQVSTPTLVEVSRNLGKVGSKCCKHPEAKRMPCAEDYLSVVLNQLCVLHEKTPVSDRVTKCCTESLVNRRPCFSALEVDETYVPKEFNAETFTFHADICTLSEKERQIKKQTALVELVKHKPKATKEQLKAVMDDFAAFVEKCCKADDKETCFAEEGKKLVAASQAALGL
Series [3] deals with T1, Tyrosine-protein kinase SYK. As to the kind of experiment: Inhibition of N-terminal 6His-tagged full length human recombinant SYK expressed in baculovirus using Biotin-AAAEEIYGEI as substrate after 60 mins by TR-FRET assay.
Series [4] in a line: Lipophilicity, log D of the compound by chromatographic method. In kind it is physicochemical.
A further series deals with Aurora kinase B (Homo sapiens, UniProt Q96GD4). In words: Inhibition of N-terminal-6His-tagged full length human Aurora B expressed in baculovirus using 5FAM-PKA-tide as substrate after 120 mins by fluorescence polarization assay. On the technique in general: Fluorescence polarisation rises when a labelled molecule tumbles more slowly, as on binding a larger partner.
Aurora kinase B, sequence (Q96GD4 whole entry): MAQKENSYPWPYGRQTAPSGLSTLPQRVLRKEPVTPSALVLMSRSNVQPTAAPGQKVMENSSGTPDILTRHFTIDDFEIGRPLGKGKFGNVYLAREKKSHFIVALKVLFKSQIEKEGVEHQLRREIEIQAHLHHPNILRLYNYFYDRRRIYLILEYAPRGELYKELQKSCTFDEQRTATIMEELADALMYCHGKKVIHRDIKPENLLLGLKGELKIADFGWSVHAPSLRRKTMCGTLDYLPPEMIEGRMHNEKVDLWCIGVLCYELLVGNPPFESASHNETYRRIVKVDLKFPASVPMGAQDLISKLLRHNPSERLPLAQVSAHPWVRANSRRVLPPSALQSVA
Series [5] in a line: AUC in rat at 3 mg/kg, po. To be noted: in vivo. The class given is ADME, organism-based.
The nature of series [6]: Dissociation constant, pKa of the compound. In kind it is physicochemical.
The nature of series [7]: Cmax in rat at 3 mg/kg, po. The class given is ADME, organism-based. Set-up: dose 3 mg/kg, route oral. To be noted: in vivo.

Consider 34 compounds from ChEMBL document CHEMBL4431389, “Optimisation of a novel series of potent and orally bioavailable azanaphthyridine SYK inhibitors” (Bioorg Med Chem Lett, 2016).

A word on the IC50: it is the concentration that inhibits the measured activity by half. A word on the chromatographic logD: it is lipophilicity estimated from chromatographic retention. A higher chromatographic logD goes with higher lipophilicity. The AUC is concentration integrated over time. As a reminder, the pKa is the pH at which an ionisable group is half protonated. High values mean a group that holds its proton tightly, low ones a group that gives up its proton readily. As usually defined, the Cmax is the peak of the concentration-time curve.

Voltage-gated inwardly rectifying potassium channel KCNH2, sequence (Q12809 whole entry): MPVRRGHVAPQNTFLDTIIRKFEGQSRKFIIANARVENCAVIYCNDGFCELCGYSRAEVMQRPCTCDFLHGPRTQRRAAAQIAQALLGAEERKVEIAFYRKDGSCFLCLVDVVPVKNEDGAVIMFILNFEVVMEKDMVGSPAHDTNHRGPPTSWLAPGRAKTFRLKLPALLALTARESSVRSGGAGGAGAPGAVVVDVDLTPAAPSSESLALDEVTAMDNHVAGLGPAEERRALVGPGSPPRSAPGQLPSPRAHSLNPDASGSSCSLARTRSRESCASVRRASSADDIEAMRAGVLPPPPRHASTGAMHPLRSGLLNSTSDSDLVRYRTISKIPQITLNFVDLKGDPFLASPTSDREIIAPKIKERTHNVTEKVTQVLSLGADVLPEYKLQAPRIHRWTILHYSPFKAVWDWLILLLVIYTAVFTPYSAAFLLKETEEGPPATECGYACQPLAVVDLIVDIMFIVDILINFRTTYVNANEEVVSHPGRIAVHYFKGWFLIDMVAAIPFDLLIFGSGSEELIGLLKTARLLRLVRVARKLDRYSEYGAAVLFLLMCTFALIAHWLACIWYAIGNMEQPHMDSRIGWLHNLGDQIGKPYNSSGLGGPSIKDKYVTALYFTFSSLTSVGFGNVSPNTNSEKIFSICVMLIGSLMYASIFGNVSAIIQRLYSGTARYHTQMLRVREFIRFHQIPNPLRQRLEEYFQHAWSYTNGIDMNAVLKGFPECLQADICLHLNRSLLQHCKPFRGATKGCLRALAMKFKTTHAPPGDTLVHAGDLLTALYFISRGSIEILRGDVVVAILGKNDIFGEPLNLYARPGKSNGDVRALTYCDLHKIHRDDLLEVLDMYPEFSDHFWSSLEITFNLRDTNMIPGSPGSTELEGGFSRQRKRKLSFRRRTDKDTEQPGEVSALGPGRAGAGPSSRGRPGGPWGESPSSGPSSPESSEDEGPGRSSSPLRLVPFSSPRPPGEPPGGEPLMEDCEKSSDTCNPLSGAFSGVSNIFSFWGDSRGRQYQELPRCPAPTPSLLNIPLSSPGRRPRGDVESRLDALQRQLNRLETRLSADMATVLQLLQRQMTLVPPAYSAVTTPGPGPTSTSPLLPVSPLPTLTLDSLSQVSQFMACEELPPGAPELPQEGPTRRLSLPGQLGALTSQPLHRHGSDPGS

Regarding `Cc1ccc(-c2cc3nccnc3c(NC[C@H]3CCCNC3)n2)o1`, the IC50 is 20000 nM in series [1] and 794 nM in series [2].
For `Cn1cc(-c2cc3nccnc3c(NC[C@H]3CCCNC3)n2)cn1`, the IC50 is more than 50100 nM in series [1], 126 nM in series [2] and 31.6 nM in series [3]. Moreover, the fraction unbound on albumin was 0.25.
Consider `CN(C)c1ccc(-c2cc3ncccc3c(NC[C@H]3CCCNC3)n2)cn1`, for which the IC50 in series [1] was more than 50100 nM; in series [2], 794 nM; in [3], 7.94 nM. Also, the fraction unbound on albumin was 0.06.
`CN(C)c1ccc(-c2cc3nccnc3c(NCC(F)(F)F)n2)cn1`: the half-inhibitory concentration (IC50) was more than 50100 nM in [1], more than 10000 nM in series [2], 50.1 nM on Aurora kinase B and 126 nM in series [3]. This compound displayed a chromatographic logD in series [4] of 5.7. The fraction unbound at albumin is 0.04.
As for `c1cnc2c(NC[C@H]3CCCNC3)nc(N3CCNCC3)cc2n1`, the figures for the IC50 in [1] and in series [3] were more than 50100 nM and more than 25100 nM, respectively. For the same compound, the fraction unbound at albumin is 0.3.
For `Cc1ccc(-c2cc3ncn(C)c(=O)c3c(NC[C@H]3CCCNC3)n2)cc1`, the IC50 in series [1] is 25100 nM; in series [2], 1260 nM; in [3], 79.4 nM. The fraction unbound on albumin is 0.1.
In the case of `Cn1cc(-c2cc3nccnc3c(NC[C@@H]3CNCCC3(F)F)n2)cn1`, the IC50 in series [1] is 25100 nM; in [2] it was 79.4 nM; in series [3] it was 3.98 nM.
As to `CN(C)c1ccc(-c2cc3nccnc3c(NC[C@H]3CNCCC3(F)F)n2)cn1`, the IC50 is 20000 nM in [1], 1580 nM in series [2] and 31.6 nM in [3]. For the same compound, the fraction unbound on albumin was 0.05.
On to `CN(C)c1ccc(-c2cc3nccnc3c(NC[C@H]3CCCNC3)n2)cn1`, for which the results for the IC50 in [2] and in series [3] were 316 nM and 15.8 nM, respectively. In addition, the fraction unbound on albumin is 0.08.
In series [1], `c1cnc2c(NC[C@H]3CCCNC3)nc(-c3cc[nH]n3)cc2n1` showed an IC50 of more than 50100 nM. At albumin, the fraction unbound was 0.21.
On to `CN1CCNC[C@H]1CNc1nc(-c2cnn(C)c2)cc2nccnc12`, for which the figures for the 50% inhibitory concentration (IC50) in [1], in [2] and in series [3] were more than 50100 nM, 200 nM and 100 nM, respectively.
For the compound `CN(C)c1ccc(-c2cc3nccnc3c(NC[C@@H]3CNCCN3C)n2)cn1`, the half-maximal inhibitory concentration (IC50) is more than 50100 nM in [1] and 50.1 nM in series [3]. The fraction unbound at albumin was 0.09.
For `CN(C)c1ccc(-c2cc3nccnc3c(NCCC(N)=O)n2)cn1`, the IC50 in series [1] is more than 50100 nM; in series [2], 3980 nM; in [3] it was 158 nM. In addition, the fraction unbound at albumin is 0.04.
`Cn1cc(-c2cc3nccnc3c(OCC3CNCCC3(F)F)n2)cn1` (racemic) had an AUC in series [5] of 99 ng·h/mL. The same compound returned a pKa in series [6] of 7.7. In series [7], this compound showed a Cmax of 28 ng/mL.
In the case of `CN1CCNC[C@H]1COc1nc(-c2cnn(C)c2)cc2nccnc12`, the IC50 in [1] was more than 50100 nM; in [2] it was 100 nM.
As to `Cn1cc(-c2cc3nccnc3c(OC[C@H]3CCCNC3)n2)cn1`, the figures for the IC50 in series [1], in [2] and in [3] were more than 50100 nM, 200 nM and 39.8 nM, respectively. Also, the fraction unbound on albumin was 0.22.
On to `CN(C)c1ccc(-c2cc3nccnc3c(NCCCCO)n2)cn1`, for which the IC50 in [1] is 31600 nM; in [2], more than 10000 nM; in series [3], 200 nM. Moreover, the fraction unbound at albumin was 0.08.
With `Cc1ccc(-c2cc3ncccc3c(NC[C@H]3CCCNC3)n2)cc1`, the IC50 in series [2] is 794 nM; in series [3] it was 20 nM. Moreover, the fraction unbound at albumin was 0.05.
Regarding `CN(C)c1ccc(-c2cc3nccnc3c(OC[C@H]3CCCNC3)n2)cn1`, the IC50 in series [1] is 10000 nM; in [2], 126 nM; in series [3], 3.98 nM. Moreover, the fraction unbound on albumin was 0.1.
In the case of `CN(C)c1ccc(-c2cc3nccnc3c(OC[C@@H]3CCCNC3)n2)cn1`, the IC50 is 12600 nM in [1], 501 nM in [2] and 25.1 nM in [3]. Further, the fraction unbound at albumin is 0.09.
Consider `O=C1CN(c2cc3nccnc3c(NC[C@H]3CCCNC3)n2)CCN1`, for which the chromatographic logD in series [4] came to 0.6. Moreover, the fraction unbound on albumin was 0.41. Moreover, the IC50 against Aurora kinase B was 7940 nM; in [3] it was 6310 nM.
Regarding `Cc1ccc(-c2cc3nccnc3c(NC[C@H]3CCCNC3)n2)cc1`, the IC50 is 794 nM in series [2] and 25.1 nM in series [3]. Moreover, the fraction unbound on albumin is 0.09.
For the compound `Cc1ccc(-c2cc3nc[nH]c(=O)c3c(NC[C@H]3CCCNC3)n2)cc1`, the IC50 in [1] is 7940 nM; in series [2] it was 3980 nM; in [3] it was 158 nM. The fraction unbound on albumin was 0.09.
As to `CN(C)c1ccc(-c2cc3nccnc3c(NCC3CNCC(F)(F)C3)n2)cn1` (racemic), the IC50 is more than 50100 nM in series [1], 1580 nM in series [2], 501 nM against Aurora kinase B and 100 nM in series [3]. The same compound showed a chromatographic logD in series [4] of 4.2. Also, the fraction unbound on albumin is 0.07.
As for `CN(C)c1ccc(-c2cc3nccnc3c(NC[C@H]3CNCCN3C)n2)cn1`, the IC50 in [1] was 15800 nM; in series [2], 251 nM; in [3], 79.4 nM. Also, the fraction unbound at albumin is 0.07.
Turning to `CN(C)c1ccc(-c2cc(NC[C@H]3CCCNC3)c3cccnc3c2)cn1`, the IC50 in series [2] was 501 nM; in [3], 6.31 nM. Also, at albumin, the fraction unbound was 0.05.
For `CN(C)c1ccc(-c2cc3nccnc3c(NC[C@H]3CNCCO3)n2)cn1`, the IC50 in series [1] is more than 50100 nM; in [2], 1580 nM; in series [3], 200 nM. In addition, the fraction unbound on albumin is 0.11.
The corresponding values for `CN(C)c1ccc(-c2cc3nccnc3c(NC[C@@H]3CNCCO3)n2)cn1` are more than 50100 nM, 316 nM, 25.1 nM and 0.12.
As to `c1cnc2c(NC[C@H]3CCCNC3)nc(-c3cn[nH]c3)cc2n1`, the IC50 in series [1] was more than 50100 nM; in series [2] it was 316 nM; in [3], 50.1 nM. On albumin, the fraction unbound is 0.24.
Regarding `CN(C)c1ccc(-c2cc3nccnc3c(NCCCCN)n2)cn1`, the half-inhibitory concentration (IC50) in [1] was 39800 nM. For the same compound, the fraction unbound at albumin was 0.11.
With `CN(C)c1ccc(-c2cc3nccnc3c(NC[C@@H]3CNCCC3(F)F)n2)cn1`, the IC50 was 158 nM in series [2] and 2.51 nM in series [3]. Also, at albumin, the fraction unbound is 0.05.
As to `Cc1ccc(-c2cc3ncncc3c(NC[C@H]3CCCNC3)n2)cc1`, the results for the IC50 in [1], in series [2] and in series [3] were 10000 nM, 3980 nM and 200 nM, respectively. Moreover, the fraction unbound on albumin was 0.09.
As to `CN(C)c1ccc(-c2cc3nccnc3c(CCC3CCCNC3)n2)cn1` (racemic), the IC50 in series [2] was 1000 nM; in series [3], 251 nM. In addition, the chromatographic logD in series [4] is 2.4. The fraction unbound at albumin was 0.09.
`Cc1ccc(-c2cc3nccnc3c(NC[C@H]3CCCNC3)n2)s1`: the IC50 in series [1] is 5010 nM; in series [2], 1000 nM; in series [3], 20 nM. Moreover, at albumin, the fraction unbound was 0.08.
